Test results from the RepoRT retention time repository.

assay: Agilent ZORBAX 300 SB-C18, 150 × 1 mm, 3.5 µm; A: water + 0.01% heptafluorobutyric acid; B: acetonitrile + 0.01% heptafluorobutyric acid; gradient (min/%B) 0/0 100/90; settings: stereoisomer not certain

SMILES | LC retention time [min]
CN1CC=C(C=Cc2ccco2)CC1 | 8.8
c1csc(CN2CCNCC2)c1 | 7.6
CCCCCCCCCCNCCCCCCCCCC | 17.8
O=C1CCCN1c1ccccc1 | 10
Oc1cccc(N2Cc3ccccc3C2)c1 | 13.9
COc1ccc(C2NNc3nn(-c4ccccc4OC)nc32)cc1 (configuration not stated) | 13.6
CN(C)c1nc(N(C)C)nc(N2CCCCC2)n1 | 11.2
Cc1nc2ccc(NC(=S)N(C)C)cc2nc1C | 8.82
C=CCN1CCC23c4c5ccc(O)c4OC2C(=O)CCC3(O)C1C5 (configuration not stated) | 8.17
Cc1cc(C)cc(N)c1 | 8.29
COc1cc(N2C=C3N=C(c4ccccc4)NN3C=N2)cc(OC)c1OC | 12.1
CCCCCCCCN(CCCCCCCC)CCCCCCCC | 19.5
Cc1ccc(-n2cccc2)c(O)c1 | 13.1
c1ccc(-c2nc3ccccc3o2)cc1 | 15.4
CN(C)CCO | 3.24
Cc1ccnc(C)c1 | 6.8
Cc1cc(C)nc(Nc2ccccc2C)n1 | 10.7
Cc1ccc(N(C)C)cc1 | 8.12
CNc1ccccc1 | 7.27
CC(Nc1ccc2ccccc2c1)C(=O)NN=Cc1c2ccccc2cc2ccccc12 (configuration not stated) | 17.5
Cn1c(C(c2ccccc2)c2ccccc2)n[nH]c1=S | 12.9
CCc1ccc(C2Nc3ccccc3C(=O)N2c2ccc(N(C)C)cc2)cc1 (configuration not stated) | 13.7
Nc1ccc2[nH]ccc2c1 | 7.01
Nc1ccc(CN2CCCC2)cc1 | 7.04

SMILES | LC retention time [min]
Nc1nc(N)nc(N)n1 | 4.25
O=C1CCNC2CCCCC12 (configuration not stated) | 6.79
NC1=NC(=Nc2ccc3c(c2)OCCO3)c2ccccc21 | 9.45
O=c1cc(Nc2ccccc2)c2ccccc2o1 | 12.2
c1ccc(Nc2ncnc3nc[nH]c23)cc1 | 8.8
COc1ccc(C(=O)C=Cc2ccc(OC)c(COc3cccc(C)c3C)c2)cc1 | 19.9
COc1ccc2c(c1)C(C)N1C(=O)c3ccccc3C1O2 (configuration not stated) | 13.9
CC1C2=C(CC(C)(C)CC2=O)NC2=C1C(=O)CC(C)(C)C2 | 10.9
CC(C)(N)Cc1ccccc1 | 8.82
CC1CCCCN1C(=S)NCc1ccccc1 (configuration not stated) | 14.3
CNC(=S)Nc1ccc2c(c1)CCCC2 | 12.5
C=CCC1(CC=C)CCCCN1 | 8.76
Cn1c(C(C)(C)C)nc(N)nc1=O | 7.21
CNCCc1ccccc1 | 7.97
COc1ccc(-c2cc(=O)c3cc(C)cc(C)c3o2)cc1OC | 15.2
CN(C)NC1=CC(=O)CC(c2ccccc2)C1 (configuration not stated) | 10.4
CCc1cccnc1 | 6.88
c1ccc2c(c1)ccc1cccnc12 | 12.7
Cc1cccnc1C | 6.67
CCN(C(C)C)C(C)C | 7.51
S=c1[nH]ccc2ccccc12 | 9.61
CN(c1ccccc1)c1ccc(C=C2CCc3ccccc3C2=O)cc1 | 20.3
c1ccc(CN2CCN(Cc3ccccc3)C2c2cccs2)cc1 | 11
COc1ccc(OC)c(C(=O)C=Cc2ccc(OC)c(OC)c2OC)c1 | 15.2

Other lines, results leading:

LC retention time [min] | SMILES
11.3 | CC1CCCCN1C(=O)c1cncc(C(=O)N2CCCCC2C)c1 (configuration not stated)
7.34 | CCC1NC(=O)NC(C)=C1C(C)=O (configuration not stated)
7.04 | NCc1cccc(CN)c1
7.86 | CN(CCNc1ccccc1)C(N)=O
9.82 | Cc1cn(COCc2ccccc2)c(=O)[nH]c1=O
8.26 | NCCCCCCCCCCCCN
11.6 | O=C(O)CC(CNC(=O)CCCCCN1C(=O)c2ccccc2C1=O)c1ccccc1 (configuration not stated)
8.47 | CN(C)c1ccc(C=NNC(=O)Cc2n[nH]c(=O)[nH]c2=O)cc1
9.32 | O=C1CNCC(=O)N1CCc1ccccc1
12.7 | Cc1cc(C=NNC(N)=S)c(C)n1-c1ccccc1
18.2 | Cc1[nH]c(-c2ccccc2)c(-c2ccccc2)c1C(=O)OCc1ccccc1
8.61 | O=c1[nH]c(=O)n(CCc2ccccc2)c2c1CN(C1CCCC1)CN2
7.75 | Cc1ccc2[nH]c(=O)c(C=NC(CO)(CO)CO)c(O)c2c1
14.4 | CCOc1cc(C(=O)Nc2ccc(OC)c(OC)c2)cc(OCC)c1OCC
9.84 | Nc1ccc(OCc2ccccc2)cc1
11.9 | O=C(Oc1ccccc1)c1cccnc1
7.5 | NCCNCCNCCN
13.8 | Cc1ccccc1NCC(=O)Nc1c(C)cccc1C
11.1 | CCC(=O)Nc1ccc(NCC(=O)Nc2ccc(C)cc2C)cc1
14.3 | Cc1ccc(OC(=O)CCC(=O)N2CCN(C(=O)CCC(=O)Oc3ccc(C)cc3)CC2)cc1
13.3 | Nc1ccccc1C(=O)NN=Cc1cccc2ccccc12
8.16 | CCN(CC)CC(=O)Nc1c(C)ccc(O)c1C
5.49 | NC(=O)C1CCCOC1 (configuration not stated)
11.2 | CC(C)(C)c1ccc(C(=O)Nc2ccc(N)cc2)cc1
6.65 | CC(=O)Nc1ccc(O)cc1

LC retention time [min] | SMILES
9.02 | CC(=O)Nc1nc(=S)n(-c2ccccc2)[nH]1
11.7 | C[N+](C)(CCOCc1ccccc1)CCOCc1ccccc1
7.66 | CC(=O)c1c[nH]cc1C
11.9 | Cc1[nH]c(C)c(C(=O)Nc2ccccc2)c1C
8.41 | CCN(CC)CCOC(=O)c1ccc(N)cc1
10.5 | CCCCNC(=O)NCCCC
13.6 | COC(=O)c1nnc(-c2ccccc2)c(-c2ccccc2)n1
8.07 | O=C(O)CNC(=O)C1CCCCC1
4.72 | CCOC(N)=O
8.29 | CN1C(=O)C2CN(CCc3ccccc3)CNC2N(C)C1=O (configuration not stated)
9.72 | CCc1ccc(C=NNC(=O)C[n+]2ccccc2)cc1
7.37 | COCCCN1CCC(CN)C1 (configuration not stated)
9.31 | CCCCCCC(C)NCCO (configuration not stated)
3.25 | NCC(=O)CCC(=O)O
10.5 | CC(NC(=O)c1ccc(CN2CCc3ccccc3C2)cc1)c1ccccc1 (configuration not stated)
10.3 | CNC(=S)NNC(=O)Cc1cccc2ccccc12
7.55 | CCCCN1CCCC1
17.1 | CCc1c(C)[nH]c(C(=O)OCc2ccccc2)c1C
7.61 | OCCCCNCc1ccccc1
7.68 | CC(=O)N(C)c1ccc(O)cc1
7 | CCCNCCN
13 | Cc1ccc(C(=O)c2cccc(N)c2)cc1C
7.95 | COC(=O)CC1CN=C(N2CCCCC2)NC1=O (configuration not stated)
9.71 | c1ccc(CNCc2ccccc2)cc1
